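A five-concentration, 48-hour dose response in 96-well plates underlies each endpoint, interpolated linearly between surrounding concentrations. At the GI50, growth is halved.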 Calls of active or inactive are those of the source. Rule as the data show it: active = GI50 up to about 1.1 µM and inactive = higher.
Legend:
Test in all cases: NCI tumour cell line growth inhibition, 48 h
IGROV-1 = system: IGROV-1
COLO 205 = system: COLO 205
HOP-62 = system: HOP-62
UACC-257 = system: UACC-257
ACHN = system: ACHN
HOP-92 = system: HOP-92
SR = system: SR
HT-29 = system: HT-29
RPMI-8226 = system: RPMI-8226
HCT-116 = system: HCT-116
SN12C = system: SN12C
SF-539 = system: SF-539
HCC 2998 = system: HCC 2998
OVCAR-3 = system: OVCAR-3
A498 = system: A498
CAKI-1 = system: CAKI-1
M14 = system: M14
CCRF-CEM = system: CCRF-CEM

Measured: GI50

O=c1c2ccccc2[nH]c(=S)n1-c1ccc(Br)cc1
inactive: IGROV-1 71.4 µM | COLO 205 > 100 µM | HOP-62 > 100 µM | UACC-257 > 100 µM | ACHN 42.5 µM | HOP-92 18.8 µM | SR > 100 µM | HT-29 44.9 µM | RPMI-8226 40.1 µM | HCT-116 68.4 µM | SN12C > 100 µM | SF-539 > 100 µM | HCC 2998 > 100 µM | OVCAR-3 45.1 µM | A498 51.6 µM

O=c1c2cccnc2ncn1CCCN1CCOCC1
inactive: IGROV-1 > 100 µM | CAKI-1 > 100 µM | COLO 205 > 100 µM | HOP-62 > 100 µM | ACHN > 100 µM | HOP-92 > 100 µM | SR > 100 µM | HT-29 > 100 µM | M14 > 100 µM | HCT-116 > 100 µM | SN12C > 100 µM | SF-539 > 100 µM | HCC 2998 > 100 µM | CCRF-CEM > 100 µM | OVCAR-3 > 100 µM

COc1cc(-c2n[nH]cc2CCCC(=O)Nc2ccccc2[N+](=O)[O-])ccc1O
inactive: IGROV-1 > 100 µM | CAKI-1 > 100 µM | COLO 205 > 100 µM | HOP-62 > 100 µM | UACC-257 > 100 µM | ACHN > 100 µM | HOP-92 91.8 µM | SR 46.9 µM | HT-29 > 100 µM | RPMI-8226 40.2 µM | M14 50.9 µM | HCT-116 45.3 µM | SN12C > 100 µM | SF-539 74.5 µM | HCC 2998 > 100 µM | CCRF-CEM 55.7 µM | A498 > 100 µM

Cc1ccccc1C1CC(c2ccccc2)=NO1 (stereo unspecified)
inactive: IGROV-1 > 100 µM | CAKI-1 > 100 µM | COLO 205 > 100 µM | HOP-62 > 100 µM | UACC-257 > 100 µM | ACHN > 100 µM | HOP-92 > 100 µM | SR > 100 µM | HT-29 > 100 µM | RPMI-8226 > 100 µM | M14 > 100 µM | HCT-116 > 100 µM | SN12C > 100 µM | SF-539 > 100 µM | HCC 2998 > 100 µM | CCRF-CEM > 100 µM | OVCAR-3 > 100 µM | A498 > 100 µM

O=C1NC2OC(CO)C(O)C(O1)C2O (stereo unspecified)
inactive: IGROV-1 > 100 µM | CAKI-1 > 100 µM | COLO 205 > 100 µM | HOP-62 > 100 µM | UACC-257 > 100 µM | ACHN > 100 µM | HOP-92 > 100 µM | SR > 100 µM | HT-29 > 100 µM | RPMI-8226 > 100 µM | M14 > 100 µM | SN12C > 100 µM | SF-539 > 100 µM | CCRF-CEM > 100 µM | OVCAR-3 > 100 µM | A498 > 100 µM

C/C(CC(=O)Nc1ccc([N+](=O)[O-])cc1)=N\NC(N)=O
inactive: IGROV-1 > 100 µM | CAKI-1 > 100 µM | COLO 205 > 55.6 µM | HOP-62 > 100 µM | UACC-257 > 100 µM | ACHN > 100 µM | HOP-92 > 100 µM | SR 24.4 µM | HT-29 > 100 µM | RPMI-8226 > 46.1 µM | M14 > 76.6 µM | HCT-116 > 57.8 µM | SN12C > 100 µM | SF-539 > 100 µM | HCC 2998 > 100 µM | CCRF-CEM > 44.6 µM | OVCAR-3 > 100 µM | A498 > 100 µM

CCOC(=O)Cc1csc(Nc2ccccc2[N+](=O)[O-])n1
inactive: IGROV-1 > 100 µM | CAKI-1 > 100 µM | COLO 205 > 100 µM | HOP-62 > 100 µM | UACC-257 > 100 µM | ACHN > 100 µM | HOP-92 > 100 µM | SR 29.7 µM | HT-29 > 100 µM | RPMI-8226 > 100 µM | M14 > 100 µM | HCT-116 > 76.4 µM | SN12C > 100 µM | SF-539 > 100 µM | HCC 2998 > 100 µM | CCRF-CEM > 100 µM | OVCAR-3 > 100 µM | A498 > 100 µM

CCC1C(C(=O)Nc2ccccc2C)=C(C)NC(C)=C1c1ccccc1C (stereo unspecified)
inactive: IGROV-1 > 100 µM | CAKI-1 > 100 µM | COLO 205 > 77.1 µM | HOP-62 > 100 µM | UACC-257 > 100 µM | ACHN > 100 µM | HOP-92 > 100 µM | SR 2.88 µM | HT-29 > 100 µM | RPMI-8226 31.8 µM | M14 > 100 µM | HCT-116 > 48.6 µM | SN12C > 100 µM | SF-539 > 100 µM | HCC 2998 > 100 µM | CCRF-CEM 55.1 µM | OVCAR-3 > 100 µM | A498 > 100 µM

O=CN1CCN(C=S)CC1
inactive: IGROV-1 > 100 µM | CAKI-1 > 100 µM | COLO 205 > 100 µM | HOP-62 > 100 µM | UACC-257 > 100 µM | ACHN > 100 µM | HOP-92 > 100 µM | SR 54.5 µM | HT-29 > 100 µM | RPMI-8226 > 100 µM | M14 > 100 µM | HCT-116 > 100 µM | SN12C > 100 µM | SF-539 > 100 µM | HCC 2998 > 100 µM | CCRF-CEM > 100 µM | OVCAR-3 > 100 µM | A498 > 100 µM

Cc1ccc2c(c1)SC(c1cc3c(cc1Br)OCO3)S2 (stereo unspecified)
inactive: IGROV-1 > 31.6 µM | CAKI-1 > 76 µM | COLO 205 > 31.6 µM | HOP-62 > 31.6 µM | UACC-257 > 31.6 µM | ACHN > 31.6 µM | HOP-92 6.22 µM | SR 23.3 µM | HT-29 18.7 µM | RPMI-8226 18.5 µM | M14 > 31.6 µM | HCT-116 23.9 µM | SN12C > 31.6 µM | SF-539 > 31.6 µM | HCC 2998 31 µM | CCRF-CEM > 31.6 µM | OVCAR-3 > 31.6 µM | A498 > 31.6 µM

COC(=O)C1C(C(=O)OC)C2(OC)c3ccccc3-c3ccccc3C12 (stereo unspecified)
inactive: IGROV-1 35 µM | CAKI-1 40.1 µM | COLO 205 16.1 µM | HOP-62 71.6 µM | UACC-257 24.2 µM | ACHN 37.9 µM | HOP-92 35 µM | SR 15.5 µM | HT-29 32.2 µM | RPMI-8226 9.89 µM | M14 34.2 µM | HCT-116 35.4 µM | SN12C 32 µM | SF-539 66.5 µM | HCC 2998 64.3 µM | CCRF-CEM 24.7 µM | OVCAR-3 31 µM | A498 44 µM

CS(=O)(=O)Oc1cccc(/C=N/N=C(\N)NO)c1
inactive: IGROV-1 35.2 µM | CAKI-1 20.9 µM | COLO 205 26.7 µM | HOP-62 27.5 µM | UACC-257 38.8 µM | ACHN 22.2 µM | HOP-92 22.4 µM | SR 27.4 µM | HT-29 24.8 µM | M14 27.1 µM | HCT-116 32.9 µM | SN12C 29.2 µM | SF-539 28.6 µM | HCC 2998 20.6 µM | CCRF-CEM 23.9 µM | OVCAR-3 35.2 µM | A498 73.1 µM

Source: ChEMBL document CHEMBL1201862, “PubChem BioAssay data set” (2004)
